Some results are limits rather than exact numbers.

The target of the first test is T1, HCV NS3/NS4a serine protease (Hepatitis C virus genotype 1b, UniProt P26663).
T1 construct: amino terminus of the NS3 protease domain (amino acids 3-181) with a tetrapeptide linker; made in house; host or cells: E. coli
T1 sequence (P26663 1013-1207, looked up, natural form): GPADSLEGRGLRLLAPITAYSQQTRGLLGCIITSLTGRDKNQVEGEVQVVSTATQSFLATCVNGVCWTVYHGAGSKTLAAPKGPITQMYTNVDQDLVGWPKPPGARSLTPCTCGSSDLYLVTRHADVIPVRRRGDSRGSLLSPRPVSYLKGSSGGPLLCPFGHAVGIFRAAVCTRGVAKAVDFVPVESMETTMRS
Briefly: Spectrophotometric assay for HCV protease inhibitory activity (chromogenic ester substrates). The note with it: Ki Rating, Table 2; single chain NS4A21-32-GSGS-NS3 3-181 protease, 30° C., pH 6.5. Format: biochemical, hepatitis C virus (strain 1b). The procedure: Spectrophotometric Assay: Spectrophotometric assays for the HCV serine protease were performed on the inventive compounds by following the procedure described by R. Zhang et al., Analytical Biochemistry, 270 (1999) 268-275, the disclosure of which is incorporated herein by reference. The assay based on the proteolysis of chromogenic ester substrates is suitable for the continuous monitoring of HCV NS3 protease activity.
HCV NS3 protease (strain 1b) and its NS4A cofactor were constructed as a recombinant single chain protein. The NS4A cofactor domain (amino acid residues 21-32) was fused in frame to the amino terminus of the NS3 protease domain (amino acids 3-181) with a tetrapeptide linker. This NS4A 21-32-GSGS-NS33-181 construct was then expressed in E. coli and purified to >90% homogeneity. Kinetic parameters were determined and found to be the same as that of the full length NS31-631/NS4A1-54 protein complex produced in the baculovirus system (D. L. Sali et al, Biochemistry, 37 (1998) 3392-340). The details of the cloning, expression, purification and kinetic analysis of the of the single chain recombinant protease have been previously described (S. S. Taremi, et al. Protein Science. 7 (1998) 2143-2149.
Protein concentrations were determined by the Biorad dye method using recombinant HCV protease standards previously quantified by amino acid analysis. Prior to assay initiation, the enzyme storage buffer (50 mM sodium phosphate pH 8.0, 300 mM NaCl, 10% glycerol, 0.05% lauryl maltoside and 10 mM DTT) was exchanged for the assay buffer (25 mM MOPS pH 6.5, 300 mM NaCl, 10% glycerol, 0.05% lauryl maltoside, 5 μM EDTA and 5 μM DTT) utilizing a Biorad Bio-Spin P-6 prepacked column.
Protease Assay: HCV protease assays were performed at 30° C. using a 200 μl reaction mix in a 96-well microtiter plate. Assay buffer conditions (25 mM MOPS pH 6.5, 300 mM NaCl, 10% glycerol, 0.05% lauryl maltoside, 5 μM EDTA and 5 μM DTT) were optimized for the NS3/NS4A heterodimer (D. L. Sali et al, ibid.)). Typically, 100 μl mixtures of buffer, substrate and inhibitor were placed in wells and allowed to preincubate at 30° C. for approximately 3 minutes. One hundred μls of pre-warmed protease (30° C.) in assay buffer, was then used to initiate the reaction to produce a final concentration of 1.3 nM HCV). The Substrate cleavage by the protease was monitored over 60 minutes by measuring the release of the phenylazophenol (PAP) product at an absorbance of 370 nm with a continuous read every 30 seconds using a SpectraMax Plus microtiter plate reader (Molecular Devices, Sunnyvale, Calif.). Background hydrolysis of the substrate was subtracted. Inhibitors were tested over a range of concentrations (final DMSO concentration 4%)
Evaluation of Inhibitors The inhibition constants (Ki) for the competitive inhibitors were determined experimentally at fixed concentrations of enzyme and substrate by plotting vo/vi vs. inhibitor concentration ([I]o) according to the rearranged Michaelis-Menten equation for competitive inhibition kinetics: vo/vi=1+[I]o/(Ki(1+[S]o/Km)), where vo is the uninhibited initial velocity, vi is the initial velocity in the presence of inhibitor at any given inhibitor concentration ([I]o) and [S]o is the substrate concentration used. The resulting data were fitted using linear regression and the resulting slope, 1/(Ki(1+[S]o/Km), was used to calculate the Ki value.
One may read the Ki as a dissociation constant, usually derived from enzyme kinetics or from competition with a known ligand. On to `CC(C)[C@H](NC(=O)N[C@H](C(=O)N1C[C@H]2[C@@H]([C@H]1C(=O)N[C@@H](CC(F)F)C(=O)NCCC(=O)O)C2(C)C)C(C)(C)C)C(=O)O` [Example 160], for which the Ki was greater than 500 nM.
The same measure, in the same setting: the figure for `COC(=O)c1ccc(CCNC(=O)[C@H](CC(F)F)NC(=O)[C@@H]2[C@H]3CC(C)(C)O[C@H]3CN2C(=O)[C@@H](NC(=O)N[C@H](C(=O)OC(C)(C)C)C(C)C)C2CCCCC2)cc1` [Example 154] is greater than 500 nM; for `COC(=O)c1ccc(CCNC(=O)[C@H](CC(F)F)NC(=O)[C@@H]2[C@@H]3[C@H](CN2C(=O)[C@@H](NC(=O)N[C@H](C(=O)c2ccccc2)C(C)C)C(C)(C)C)C3(C)C)cc1` [Example 134] it is 100 to 500 nM.
On the same count and under the same terms, the value for `CC1(NC(=O)N[C@H](C(=O)N2C[C@H]3[C@@H]([C@H]2C(=O)N[C@@H](CC(F)F)C(=O)NCCC(=O)O)C3(C)C)C(C)(C)C)CCCCC1` [Example 165] was greater than 500 nM; that for `CC1(NC(=O)N[C@H](C(=O)N2C[C@H]3[C@@H]([C@H]2C(=O)NC(CC(F)F)C(=O)NCCc2ccccc2)C3(C)C)C(C)(C)C)CCCCC1` (stereo partly drawn) [Example 145] was greater than 500 nM.
On the same count and under the same terms, the figure for `CC1(C)C[C@H]2[C@H](CN(C(=O)[C@@H](NC(=O)OCc3ccccc3)C3CCCCC3)[C@@H]2C(=O)N[C@@H](CC(F)F)C(=O)NCCc2ccccc2)O1` [Example 158] is greater than 500 nM; for `COC(=O)[C@H](CC(F)F)NC(=O)[C@@H]1[C@H]2CC(C)(C)O[C@H]2CN1C(=O)[C@@H](NC(=O)OCc1ccccc1)C1CCCCC1` [Example 170] it is greater than 500 nM.

Staying with this test, now noted: Ki, Table 1; single chain NS4A21-32-GSGS-NS3 3-181 protease, 30° C., pH 6.5.
Turning to `CC(C)[C@@H](CNS(=O)(=O)c1ccccc1)NC(=O)N[C@H](C(=O)N1C[C@H]2[C@@H]([C@H]1C(=O)N[C@@H](CC(F)F)C(=O)NCCc1ccc(C(=O)O)cc1)C2(C)C)C(C)(C)C` [Example 115], the Ki is 90 nM.
Consider `COC(=O)c1ccc(CCNC(=O)[C@H](CC(F)F)NC(=O)[C@@H]2[C@@H]3[C@H](CN2C(=O)[C@@H](NC(=O)N[C@H](CN(C)S(C)(=O)=O)C(C)(C)C)C(C)(C)C)C3(C)C)cc1` [Example 103], for which the Ki came to 22 nM.
For the molecule `CC(C)[C@H](NC(=O)N[C@H](C(=O)N1C[C@H]2[C@@H]([C@H]1C(=O)N[C@@H](CC(F)F)C(=O)NCCc1ccc(C(=O)O)cc1)C2(C)C)C(C)(C)C)C(=O)O` [Example 113], the Ki was 90 nM.
As for `COC(=O)c1ccc(CCNC(=O)[C@H](CC(F)F)NC(=O)[C@@H]2[C@@H]3[C@H](CN2C(=O)[C@@H](NC(=O)NC2(CS(C)(=O)=O)CCCCC2)C(C)(C)C)C3(C)C)cc1` [Example 110], the inhibitory constant (Ki) was 40 nM.
Regarding `COC(=O)c1ccc(CCNC(=O)[C@H](CC(F)F)NC(=O)[C@@H]2[C@@H]3[C@H](CN2C(=O)[C@@H](NC(=O)N[C@H](CN(C)S(C)(=O)=O)C(C)(C)C)C(C)(C)C)C3(C)C)c(Cl)c1` [Example 105], the inhibitory constant (Ki) was 24 nM.

Still in this test, the particulars now being: Ki, Table 3; rating; single chain NS4A21-32-GSGS-NS3 3-181 protease, 30° C., pH 6.5.
As for `COc1cccc(CCNC(=O)[C@H](CC(F)F)NC(=O)[C@@H]2[C@@H]3[C@H](CN2C(=O)[C@@H](NC(=O)N[C@H](CN(C)S(C)(=O)=O)C(C)(C)C)C(C)(C)C)C3(C)C)c1` [Example 270], the Ki is less than 100 nM.
As for `CN(C[C@@H](NC(=O)N[C@H](C(=O)N1C[C@H]2[C@@H]([C@H]1C(=O)N[C@@H](CC(F)F)C(=O)NC1CCc3ccccc31)C2(C)C)C(C)(C)C)C(C)(C)C)S(C)(=O)=O` (stereo partly drawn) [Example 217], the Ki is greater than 500 nM.
Turning to `CCOC(=O)N1CCC(NC(=O)[C@H](CC(F)F)NC(=O)[C@@H]2[C@@H]3[C@H](CN2C(=O)[C@@H](NC(=O)N[C@H](CN(C)S(C)(=O)=O)C(C)(C)C)C(C)(C)C)C3(C)C)CC1` [Example 227], the Ki was greater than 500 nM.
As for `CN(C[C@@H](NC(=O)N[C@H](C(=O)N1C[C@H]2[C@@H]([C@H]1C(=O)N[C@@H](CC(F)F)C(=O)NCCCn1cccc1)C2(C)C)C(C)(C)C)C(C)(C)C)S(C)(=O)=O` [Example 238], the Ki was greater than 500 nM.
Consider `CN(C[C@@H](NC(=O)N[C@H](C(=O)N1C[C@H]2[C@@H]([C@H]1C(=O)N[C@@H](CC(F)F)C(=O)NCCc1ccc(O)cc1)C2(C)C)C(C)(C)C)C(C)(C)C)S(C)(=O)=O` [Example 245], for which the Ki was less than 100 nM.
For the molecule `CC(C)[C@@H](CO)NC(=O)[C@H](CC(F)F)NC(=O)[C@@H]1[C@@H]2[C@H](CN1C(=O)[C@@H](NC(=O)N[C@H](CN(C)S(C)(=O)=O)C(C)(C)C)C(C)(C)C)C2(C)C` [Example 232], the Ki was greater than 500 nM.
For `COc1ccc(CCNC(=O)[C@H](CC(F)F)NC(=O)[C@@H]2[C@@H]3[C@H](CN2C(=O)[C@@H](NC(=O)N[C@H](CN(C)S(C)(=O)=O)C(C)(C)C)C(C)(C)C)C3(C)C)cc1O` [Example 295], the Ki was less than 100 nM.
For the molecule `CN(C[C@@H](NC(=O)N[C@H](C(=O)N1C[C@H]2[C@@H]([C@H]1C(=O)N[C@@H](CC(F)F)C(=O)NCCC#N)C2(C)C)C(C)(C)C)C(C)(C)C)S(C)(=O)=O` [Example 204], the Ki was greater than 500 nM.
Regarding `COc1ccc(CCNC(=O)[C@H](CC(F)F)NC(=O)[C@@H]2[C@@H]3[C@H](CN2C(=O)[C@@H](NC(=O)N[C@H](CN(C)S(C)(=O)=O)C(C)(C)C)C(C)(C)C)C3(C)C)cc1OC` [Example 280], the Ki is less than 100 nM.
For the molecule `CN(CCc1ccccn1)C(=O)[C@H](CC(F)F)NC(=O)[C@@H]1[C@@H]2[C@H](CN1C(=O)[C@@H](NC(=O)N[C@H](CN(C)S(C)(=O)=O)C(C)(C)C)C(C)(C)C)C2(C)C` [Example 305], the Ki is greater than 500 nM.
Turning to `CCc1ccc(CCNC(=O)[C@H](CC(F)F)NC(=O)[C@@H]2[C@@H]3[C@H](CN2C(=O)[C@@H](NC(=O)N[C@H](CN(C)S(C)(=O)=O)C(C)(C)C)C(C)(C)C)C3(C)C)cc1` [Example 268], the Ki was less than 100 nM.
In the case of `Cc1cccc(CCNC(=O)[C@H](CC(F)F)NC(=O)[C@@H]2[C@@H]3[C@H](CN2C(=O)[C@@H](NC(=O)N[C@H](CN(C)S(C)(=O)=O)C(C)(C)C)C(C)(C)C)C3(C)C)c1` [Example 260], the Ki is less than 100 nM.
For the molecule `CN(C[C@@H](NC(=O)N[C@H](C(=O)N1C[C@H]2[C@@H]([C@H]1C(=O)N[C@@H](CC(F)F)C(=O)NCCCc1ccccc1)C2(C)C)C(C)(C)C)C(C)(C)C)S(C)(=O)=O` [Example 220], the Ki is greater than 500 nM.
Turning to `Cc1ccccc1CCNC(=O)[C@H](CC(F)F)NC(=O)[C@@H]1[C@@H]2[C@H](CN1C(=O)[C@@H](NC(=O)N[C@H](CN(C)S(C)(=O)=O)C(C)(C)C)C(C)(C)C)C2(C)C` [Example 259], the Ki was less than 100 nM.
Turning to `CN(C[C@@H](NC(=O)N[C@H](C(=O)N1C[C@H]2[C@@H]([C@H]1C(=O)N[C@@H](CC(F)F)C(=O)NCc1ccccn1)C2(C)C)C(C)(C)C)C(C)(C)C)S(C)(=O)=O` [Example 233], the Ki was greater than 500 nM.
For the molecule `CN(C[C@@H](NC(=O)N[C@H](C(=O)N1C[C@H]2[C@@H]([C@H]1C(=O)N[C@@H](CC(F)F)C(=O)N1CCc3ccccc3C1)C2(C)C)C(C)(C)C)C(C)(C)C)S(C)(=O)=O` [Example 302], the Ki is greater than 500 nM.
Turning to `CN(C[C@@H](NC(=O)N[C@H](C(=O)N1C[C@H]2[C@@H]([C@H]1C(=O)N[C@@H](CC(F)F)C(=O)NCCCn1ccnc1)C2(C)C)C(C)(C)C)C(C)(C)C)S(C)(=O)=O` [Example 239], the Ki was greater than 500 nM.
For `CN(C[C@@H](NC(=O)N[C@H](C(=O)N1C[C@H]2[C@@H]([C@H]1C(=O)N[C@@H](CC(F)F)C(=O)N[C@H]1C[C@H]1c1ccccc1)C2(C)C)C(C)(C)C)C(C)(C)C)S(C)(=O)=O` [Example 307], the Ki is less than 100 nM.

The values are drawn from patent publication US7449447B2, “Peptidomimetic NS3-serine protease inhibitors of hepatitis C virus” (priority 2003, dated 2008).
